Legend:
[1] = tested on: CCRF-CEM; assay: NCI-60 SRB screen; type: cell-based; conditions: Homo sapiens, single dose 10^−5 M, Leukaemia, read-out: Growth inhibition (%)
[2] = tested on: HL-60(TB); assay: NCI-60 SRB screen; type: cell-based, human; conditions: Homo sapiens; single dose 10^−5 M; HL-60(TB), Leukaemia; read-out: Growth inhibition (%)
[3] = tested on: K-562; assay: NCI-60 SRB screen; type: cell-based, human; conditions: Homo sapiens, K562; single dose 10^−5 M; K-562, Leukaemia; read-out: Growth inhibition (%)
[4] = tested on: MOLT-4; assay: NCI-60 SRB screen; type: cell-based; conditions: Homo sapiens; single dose 10^−5 M; MOLT-4, Leukaemia; read-out: Growth inhibition (%)
[5] = tested on: SR; assay: NCI-60 SRB screen; type: cell-based; conditions: Homo sapiens, single dose 10^−5 M, Leukaemia, read-out: Growth inhibition (%)
[6] = tested on: A549/ATCC; assay: NCI-60 SRB screen; type: cell-based, human; conditions: Homo sapiens, single dose 10^−5 M, Non-small cell lung carcinoma, read-out: Growth inhibition (%)
[7] = tested on: EKVX; assay: NCI-60 SRB screen; type: cell-based, human; conditions: Homo sapiens, single dose 10^−5 M, Non-small cell lung carcinoma, read-out: Growth inhibition (%)
[8] = tested on: HOP-62; assay: NCI-60 SRB screen; type: cell-based, human; conditions: Homo sapiens; single dose 10^−5 M; HOP-62, Non-small cell lung carcinoma; read-out: Growth inhibition (%)
[9] = tested on: HOP-92; assay: NCI-60 SRB screen; type: cell-based, human; conditions: Homo sapiens; single dose 10^−5 M; HOP-92, Non-small cell lung carcinoma; read-out: Growth inhibition (%)
[10] = tested on: NCI-H226; assay: NCI-60 SRB screen; type: cell-based, human; conditions: Homo sapiens; single dose 10^−5 M; NCI-H226, Non-small cell lung carcinoma; read-out: Growth inhibition (%)
[11] = tested on: NCI-H23; assay: NCI-60 SRB screen; type: cell-based, human; conditions: Homo sapiens; single dose 10^−5 M; NCI-H23, Non-small cell lung carcinoma; read-out: Growth inhibition (%)
[12] = tested on: NCI-H322M; assay: NCI-60 SRB screen; type: cell-based, human; conditions: Homo sapiens, single dose 10^−5 M, Non-small cell lung carcinoma, read-out: Growth inhibition (%)
[13] = tested on: NCI-H460; assay: NCI-60 SRB screen; type: cell-based, human; conditions: Homo sapiens; single dose 10^−5 M; NCI-H460, Non-small cell lung carcinoma; read-out: Growth inhibition (%)
[14] = tested on: NCI-H522; assay: NCI-60 SRB screen; type: cell-based, human; conditions: Homo sapiens; single dose 10^−5 M; NCI-H522, Non-small cell lung carcinoma; read-out: Growth inhibition (%)
[15] = tested on: COLO 205; assay: NCI-60 SRB screen; type: cell-based, human; conditions: Homo sapiens; single dose 10^−5 M; COLO 205, Colon cancer; read-out: Growth inhibition (%)
[16] = tested on: HCT-116; assay: NCI-60 SRB screen; type: cell-based, human; conditions: Homo sapiens; single dose 10^−5 M; HCT-116, Colon cancer; read-out: Growth inhibition (%)
[17] = tested on: HCT-15; assay: NCI-60 SRB screen; type: cell-based, human; conditions: Homo sapiens; single dose 10^−5 M; HCT-15, Colon cancer; read-out: Growth inhibition (%)
[18] = tested on: HT-29; assay: NCI-60 SRB screen; type: cell-based; conditions: Homo sapiens; single dose 10^−5 M; HT-29, Colon cancer; read-out: Growth inhibition (%)
[19] = tested on: KM12; assay: NCI-60 SRB screen; type: cell-based, human; conditions: Homo sapiens; single dose 10^−5 M; KM12, Colon cancer; read-out: Growth inhibition (%)
[20] = tested on: SW-620; assay: NCI-60 SRB screen; type: cell-based; conditions: Homo sapiens; single dose 10^−5 M; SW-620, Colon cancer; read-out: Growth inhibition (%)
[21] = tested on: SF-268; assay: NCI-60 SRB screen; type: cell-based, human; conditions: Homo sapiens; single dose 10^−5 M; SF-268, CNS cancer; read-out: Growth inhibition (%)
[22] = tested on: SF-295; assay: NCI-60 SRB screen; type: cell-based, human; conditions: Homo sapiens; single dose 10^−5 M; SF-295, CNS cancer; read-out: Growth inhibition (%)
[23] = tested on: MALME-3M; assay: NCI-60 SRB screen; type: cell-based, human; conditions: Homo sapiens, single dose 10^−5 M, Melanoma, read-out: Growth inhibition (%)
[24] = tested on: M14; assay: NCI-60 SRB screen; type: cell-based, human; conditions: Homo sapiens; single dose 10^−5 M; M14, Melanoma; read-out: Growth inhibition (%)
[25] = tested on: MDA-MB-435; assay: NCI-60 SRB screen; type: cell-based; conditions: Homo sapiens, MDA-MB-435, read-out: Growth inhibition (%)
[26] = tested on: SK-MEL-2; assay: NCI-60 SRB screen; type: cell-based, human; conditions: Homo sapiens; single dose 10^−5 M; SK-MEL-2, Melanoma; read-out: Growth inhibition (%)
[27] = tested on: SK-MEL-28; assay: NCI-60 SRB screen; type: cell-based; conditions: Homo sapiens; single dose 10^−5 M; SK-MEL-28, Melanoma; read-out: Growth inhibition (%)
[28] = tested on: SK-MEL-5; assay: NCI-60 SRB screen; type: cell-based, human; conditions: Homo sapiens; single dose 10^−5 M; SK-MEL-5, Melanoma; read-out: Growth inhibition (%)
[29] = tested on: UACC-257; assay: NCI-60 SRB screen; type: cell-based, human; conditions: Homo sapiens; single dose 10^−5 M; UACC-257, Melanoma; read-out: Growth inhibition (%)
[30] = tested on: UACC-62; assay: NCI-60 SRB screen; type: cell-based, human; conditions: Homo sapiens; single dose 10^−5 M; UACC-62, Melanoma; read-out: Growth inhibition (%)
[31] = tested on: IGROV1; assay: NCI-60 SRB screen; type: cell-based, human; conditions: Homo sapiens, IGROV-1; single dose 10^−5 M; IGROV1, Ovarian cancer; read-out: Growth inhibition (%)
[32] = tested on: OVCAR-3; assay: NCI-60 SRB screen; type: cell-based, human; conditions: Homo sapiens; single dose 10^−5 M; OVCAR-3, Ovarian cancer; read-out: Growth inhibition (%)
[33] = tested on: OVCAR-4; assay: NCI-60 SRB screen; type: cell-based, human; conditions: Homo sapiens; single dose 10^−5 M; OVCAR-4, Ovarian cancer; read-out: Growth inhibition (%)
[34] = tested on: OVCAR-8; assay: NCI-60 SRB screen; type: cell-based, human; conditions: Homo sapiens; single dose 10^−5 M; OVCAR-8, Ovarian cancer; read-out: Growth inhibition (%)
[35] = tested on: NCI/ADR-RES; assay: NCI-60 SRB screen; type: cell-based, human; conditions: Homo sapiens, single dose 10^−5 M, Ovarian cancer, read-out: Growth inhibition (%)
[36] = tested on: SK-OV-3; assay: NCI-60 SRB screen; type: cell-based, human; conditions: Homo sapiens; single dose 10^−5 M; SK-OV-3, Ovarian cancer; read-out: Growth inhibition (%)
[37] = tested on: 786-0; assay: NCI-60 SRB screen; type: cell-based; conditions: Homo sapiens; single dose 10^−5 M; 786-0, Renal cancer; read-out: Growth inhibition (%)
[38] = tested on: ACHN; assay: NCI-60 SRB screen; type: cell-based; conditions: Homo sapiens, single dose 10^−5 M, Renal cancer, read-out: Growth inhibition (%)
[39] = tested on: CAKI-1; assay: NCI-60 SRB screen; type: cell-based, human; conditions: Homo sapiens; single dose 10^−5 M; CAKI-1, Renal cancer; read-out: Growth inhibition (%)
[40] = tested on: RXF 393; assay: NCI-60 SRB screen; type: cell-based, human; conditions: Homo sapiens; single dose 10^−5 M; RXF 393, Renal cancer; read-out: Growth inhibition (%)
[41] = tested on: SN12C; assay: NCI-60 SRB screen; type: cell-based, human; conditions: Homo sapiens, SN12C; single dose 10^−5 M; SN 12 C, Renal cancer; read-out: Growth inhibition (%)
[42] = tested on: TK-10; assay: NCI-60 SRB screen; type: cell-based, human; conditions: Homo sapiens; single dose 10^−5 M; TK-10, Renal cancer; read-out: Growth inhibition (%)
[43] = tested on: UO-31; assay: NCI-60 SRB screen; type: cell-based, human; conditions: Homo sapiens; single dose 10^−5 M; UO-31, Renal cancer; read-out: Growth inhibition (%)
[44] = tested on: panel of 60 cancer cell lines; assay: NCI-60 SRB screen, mean or range over the panel; type: cell-based, human; conditions: Homo sapiens; mean over the cell lines; single dose 10^−5 M; read-out: Mean growth inhibition (%)

## O=[N+]([O-])c1cccc(C2NC(N3CCOCC3)=C(Cl)c3c2sc2c(F)cccc32)c1 (centres unmarked) [Compound 8b, 4-Chloro-3-(4-morpholino)-8-fluoro-1-(3-nitrophenyl)-1,2-dihydro [1]benzothieno[2,3-c]pyridine]
[1]
  inhibition at 10 µM: 5%
[2]
  inhibition at 10 µM: -10.1%
[3]
  inhibition at 10 µM: 18.6%
[4]
  inhibition at 10 µM: 13.6%
[5]
  inhibition at 10 µM: 20.4%
[6]
  inhibition at 10 µM: -0.74%
[7]
  inhibition at 10 µM: 14.3%
[8]
  inhibition at 10 µM: 16.1%
[9]
  inhibition at 10 µM: 22.2%
[10]
  inhibition at 10 µM: 20.9%
[11]
  inhibition at 10 µM: 5.35%
[12]
  inhibition at 10 µM: 0.04%
[13]
  inhibition at 10 µM: 6.4%
[14]
  inhibition at 10 µM: 17.3%
[15]
  inhibition at 10 µM: -12.9%
[16]
  inhibition at 10 µM: 25.3%
[17]
  inhibition at 10 µM: 4.11%
[18]
  inhibition at 10 µM: 0.78%
[19]
  inhibition at 10 µM: 6.99%
[20]
  inhibition at 10 µM: 7.44%
[21]
  inhibition at 10 µM: 7.66%
[22]
  inhibition at 10 µM: 4.37%
[23]
  inhibition at 10 µM: -3.09%
[24]
  inhibition at 10 µM: 7.49%
[25]
  inhibition at 10 µM: -2.51%
[26]
  inhibition at 10 µM: 8.89%
[27]
  inhibition at 10 µM: -7.54%
[28]
  inhibition at 10 µM: -8.74%
[29]
  inhibition at 10 µM: -3.74%
[30]
  inhibition at 10 µM: 17.5%
[31]
  inhibition at 10 µM: 16.2%
[32]
  inhibition at 10 µM: 2.72%
[33]
  inhibition at 10 µM: 13.5%
[34]
  inhibition at 10 µM: 1.71%
[35]
  inhibition at 10 µM: 1.45%
[36]
  inhibition at 10 µM: -1.6%
[37]
  inhibition at 10 µM: -6.62%
[38]
  inhibition at 10 µM: 9.98%
[39]
  inhibition at 10 µM: 32.5%
[40]
  inhibition at 10 µM: 11.9%
[41]
  inhibition at 10 µM: 3.71%
[42]
  inhibition at 10 µM: -39.7%
[43]
  inhibition at 10 µM: 38.6%
[44]
  inhibition at 10 µM: 6.1%

From article PMC8330742, “New benzothieno[2,3-c]pyridines as non-steroidal CYP17 inhibitors: design, synthesis, anticancer screening, apoptosis induction, and in silico ADME profile studies” (Journal of Enzyme Inhibition and Medicinal Chemistry, 2021)
